Assay type in all cases: functional
For test [1], the species on record is Mus musculus. In words: Minimum Effective Dose (MED) which cause 40% increase in life span, after singular injection at log (1/C).
Test [2] is filed under the species Mus musculus. Description: Optimal Dose (OD) which cause maximum increase in the life span, after singular injection at log (1/C).
Test [3] is filed under the species Mus musculus. In words: Minimum Effective Dose (MED) which cause 40% increase in life span, after chronic injection at log (1/C).
The species named for test [4] is Mus musculus. In words: Optimal Dose (OD) which cause maximum increase in the life span, after chronic injection at log (1/C).

This is an account of results in ChEMBL document CHEMBL1124916, “Neural networks applied to quantitative structure-activity relationship analysis” (1990).

Molecules are shown by their SMILES.

For `CCCC1=C(N2CC2)C(=O)C(CCOC(N)=O)=C(N2CC2)C1=O`, the MED in test [1] was found to be 4.9; in test [3], 5.68. The OD in test [2] stood at 4.42; in test [4], 5.23.
Taken in the same sequence, the figures for `CCC(COC(N)=O)C1=C(N2CC2)C(=O)C(C)=C(N2CC2)C1=O` (stereo not given) were 6.03, 6.18, 5.2 and 5.66.
Taken in the same sequence, the figures for `CC1=C(N2CC2)C(=O)C(CCCOC(N)=O)=C(N2CC2)C1=O` were 5.55, 6.18, 5.48 and 5.93.
For the compound `CC1=C(N2CC2)C(=O)C(CCCc2ccccc2)=C(N2CC2)C1=O`, the MED in test [1] is 3.93; in test [3] it was 4.47. Further, the figures for the OD in test [2] and in test [4] were 3.6 and 4.21, respectively.
With `COC(COC(N)=O)C1=C(N2CC2)C(=O)C(C)=C(N2CC2)C1=O` (stereo not given) [CARBOQUONE], the MED is on record as 5.81 in test [1] and 6.41 in test [3]. The OD in test [2] was 5.03; in test [4], 5.66.
For the compound `CCC1=C(N2CC2)C(=O)C(CC)=C(N2CC2)C1=O`, the MED in test [1] was 4.94; in test [3], 5.46. The OD in test [2] was 4.79; in test [4] it was 5.09.
For `CC1=C(N2CC2)C(=O)C(CC(C)OC(N)=O)=C(N2CC2)C1=O` (stereo not given), in that order: 5.86, 6.14, 5.18 and 5.79.
For `CCC1=C(N2CC2)C(=O)C(C(COC(N)=O)OC)=C(N2CC2)C1=O` (stereo not given), in that order: 5.62, 6.16, 4.92 and 5.22.
For `COCCOC(COC(N)=O)C1=C(N2CC2)C(=O)C(C)=C(N2CC2)C1=O` (stereo not given), the MED in test [1] is listed as 5.45; in test [3] it was 6.03. In addition, the OD in test [2] worked out at 4.96; in test [4] it was 5.39.
Turning to `CCC(OC)C1=C(N2CC2)C(=O)C(C)=C(N2CC2)C1=O` (stereo not given), the figures for the MED in test [1] and in test [3] were 5.26 and 5.68, respectively. The OD in test [2] was found to be 4.84; in test [4] it was 5.33.
Taken in the same sequence, the figures for `CCC1=C(N2CC2)C(=O)C(C)=C(N2CC2)C1=O` were 5.16, 5.86, 4.52 and 5.37.
Taken in the same sequence, the figures for `CC1=C(N2CC2)C(=O)C(CCO)=C(N2CC2)C1=O` were 5.89, 6.39, 5.25 and 5.79.
For the compound `COCCC1=C(N2CC2)C(=O)C(C)=C(N2CC2)C1=O`, the results for the MED in test [1] and in test [3] were 5.19 and 5.57, respectively. The OD was found to be 5.12 in test [2] and 5.42 in test [4].
For `COCCC1=C(N2CC2)C(=O)C(CCOC)=C(N2CC2)C1=O`, in that order: 5.18, 5.69, 4.71 and 5.31.
For `CCCC1=C(N2CC2)C(=O)C(CCC)=C(N2CC2)C1=O`, in that order: 4.32, 4.92, 4.14 and 4.44.
For `CC1=C(N2CC2)C(=O)C(COc2ccccc2)=C(N2CC2)C1=O`, in that order: 4.68, 5.15, 3.89 and 4.71.
Regarding `CC1=C(N2CC2)C(=O)C(Cc2ccccc2)=C(N2CC2)C1=O`, the MED worked out at 4.74 in test [1] and 4.85 in test [3]. Also, the OD is listed as 4.26 in test [2] and 4.69 in test [4].
Taken in the same sequence, the figures for `O=C1C(CCO)=C(N2CC2)C(=O)C(CCO)=C1N1CC1` were 5.93, 6.54, 5.6 and 6.05.
Taken in the same sequence, the figures for `CC1=C(N2CC2)C(=O)C(CCOC(N)=O)=C(N2CC2)C1=O` were 5.83, 6.21, 5.46 and 5.75.
For `CCOC(COC(N)=O)C1=C(N2CC2)C(=O)C(CC)=C(N2CC2)C1=O` (stereo not given), in that order: 5.4, 5.76, 4.64 and 5.24.
Take `CCOC(COC(N)=O)C1=C(N2CC2)C(=O)C(C)=C(N2CC2)C1=O` (stereo not given): the MED is 5.53 in test [1] and 6.18 in test [3]. Also, the OD is listed as 4.62 in test [2] and 5.22 in test [4].
Take `CC(C)C1=C(N2CC2)C(=O)C=C(N2CC2)C1=O`: the values for the MED in test [1] and in test [3] were 5.16 and 5.68, respectively. For the same compound, the results for the OD in test [2] and in test [4] were 4.59 and 5.37, respectively.
For `CC1=C(N2CC2)C(=O)C(C(C)COC(N)=O)=C(N2CC2)C1=O` (stereo not given), in that order: 5.93, 6.41, 5.31 and 5.71.
For the compound `CCCCCC1=C(N2CC2)C(=O)C(CCCCC)=C(N2CC2)C1=O`, the MED in test [1] amounted to 4.07; in test [3], 4.63. The OD in test [2] is 3.62; in test [4], 4.52.
For `COC1=C(N2CC2)C(=O)C(OC)=C(N2CC2)C1=O`, the MED is 4.81 in test [1] and 5.59 in test [3]. Besides, the values for the OD in test [2] and in test [4] were 4.32 and 5.17, respectively.
Taken in the same sequence, the figures for `CC(C)C1=C(N2CC2)C(=O)C(C(C)C)=C(N2CC2)C1=O` were 4.36, 4.77, 4.14 and 4.59.
With `O=C1C=C(N2CC2)C(=O)C(N2CC2)=C1N1CC1` [TRIAZIQUONE], the MED in test [1] was found to be 6.02; in test [3] it was 6.45. Moreover, the OD is recorded as 5.74 in test [2] and 6.19 in test [4].
In the case of `CC1=C(N2CC2)C(=O)C(C(C)C)=C(N2CC2)C1=O`, the figures for the MED in test [1] and in test [3] were 4.96 and 5.6, respectively. In addition, the OD in test [2] amounted to 4.69; in test [4], 5.21.
Taken in the same sequence, the figures for `CCC1=C(N2CC2)C(=O)C(CCOC(N)=O)=C(N2CC2)C1=O` were 5.98, 6.25, 4.88 and 5.48.
Taken in the same sequence, the figures for `CCCC1=C(N2CC2)C(=O)C(C(COC(N)=O)OC)=C(N2CC2)C1=O` (stereo not given) were 5.01, 5.63, 4.64 and 5.07.
